Measured values published in patent publication US20120114639A1, “COMPOSITIONS AND METHODS FOR INHIBITING VIRAL AND/OR BACTERIAL INFECTIONS” (priority 2010, published 2012).

How the values were obtained:
[1] = test system: p-EGFR, p-KGFR and downstream effector p-ERK1/2; experiment: EGFR and KGFR signal activation, phospho-protein immunoblot in serum-starved HaCaT cells; type: cell-based, human; conditions: 10 minutes ligand exposure; 100 nM PD168393, 1 μM PD173074, 100 μM genistein, 100 μM daidzein, 600 nM cetuximab
Protocol: FIG. 6. […] (A-B) Immunoblot of p-EGFR, p-KGFR and downstream effector p-ERK1/2 following 10 minutes ligand exposure (listed at the left of each blot: EGF, KGF, HPV16 PsV; lane 2) in serum-starved HaCaT cells. Mock exposed cells were negative controls (lane 1); ligand controls included 10 ng/ml EGF and 10 ng/ml KGF exposure (10 minutes). […] Actin is detected as a loading control. (C-D) Immunoblot of nuclear cell fractions and confocal microscopy localization of p-ERK1/2 following EGF and HPV16 exposure in serum-starved HaCaT cells at indicated times post-exposure. (C) Immunoblot for p-ERK1/2 in nuclear fractions from exposed cells. (D) Immunofluorescent confocal microscopy for localization of p-ERK1/2 (red) in PsV exposed cells. DAPI was used as a nuclear marker and was pseudocolored green to facilitate efficient co-localization of p-ERK1/2 in the nucleus. Parameters of lasers intensities were kept constant during the imaging.
Subconfluent HaCaT cells were serum-starved for 3-4 hours in Tyrode's buffer containing 0.05% BSA. After adding ˜100 vge/cell HPV16 PsV, 10 ng/ml EGF or 10 ng/ml KFG, cells were incubated at 37° C. for 10 minutes before transferring to ice and solubilizing cells with RIPA buffer. In some experiments cells were incubated with various inhibitors in Tyrode's buffer for 45 minutes and after Tyrode's washes, were incubated with virus as above in the presence of inhibitors. Lysates were clarified, mixed with Laemmli buffer and boiled for five minutes prior to SDS-PAGE Tmmunoblot was performed with various monoclonal and polyclonal antibodies: p-EGFR, p-KGFR (p-FGFR2b), p-ERK, actin. Nuclear fractionation was performed for detection of p-ERK movement into the nucleus. HaCaT cells were starved 4 h in Tyrode's solution containing 0.05% BSA, then exposed to HPV or EGF for various times. Cells were solubilized with NP40 lysis buffer and centrifuged. The pellet was incubated with nuclear extraction buffer. Following incubation on ice for one hour, the extract was clarified and the supernatant subjected to SDS-PAGE and immunoblot for analysis of p-ERK content.

HPV16 [2] = experiment: HPV16 PsV infection of HaCaT cells, luciferase assay; type: cell-based, human papillomavirus; conditions: for block of HPV16 infection / reduction of infectivity: HaCaT in CM, 24 hours in presence of inhibitor, 1 μM AG1478, 100 nM PD168393, 100 μM genistein, 1 μM PD173074, 100-600 nM cetuximab, 100 vge/cell; for visible toxicity in dose-response analysis: HaCaT cells, dose-response of infection inhibition; for IC50: Human papillomavirus 16, HaCaT, read-out: IC50 of HPV16 infection inhibition; for restoration of HPV16 infectivity in SFM by added factor: serum-starved HaCaT, HPV16 bound in SFM, 24 hours in SFM plus factor, compared to CM
Protocol: FIG. 2. […] (A, B) Immunoblot for syndecan-1 (polyclonal syndecan-1 Ab) after 24 hours at 37° C. in CM (A) or post starvation in SFM and after six hours at 37° C. in Tyrode's Buffer (B); immunoblot for HPV16 L1 released into CM post virus binding for indicated times (C) or 24 hours (E). […] Cells were untreated (U) or pre-treated with BM or MM for one hour, then exposed to HPV16 PsV in the presence of inhibitors in CM. Infection was assayed by quantifying luciferase levels at 24 hours p.i. (F). Data are represented as mean±SEM of three experiments. (G-H) IC50 of HPV16 infectivity inhibition by MMIP inhibitors batimastat and mariniastat. HaCaT cells incubated with serial dilutions of batimastat or marimastat in CM, for one hour before incubation with 100 viral genome equivalents (vge)/cell HPV16, one hour at 4° C. After washing away unbound virus, cells were incubated for 24 hours at 37° C. in the presence of inhibitors. HPV16 infection was measured with luciferase assay. Data are represented as mean±SEM of 3 experiments.
(§1) FIG. 7. […] (A) Relative HPV16 infection of HaCaT cells in the presence of specific GFR and protein tyrosine kinase inhibitors. […] Cells were exposed to HPV16 PsV at 100 vge/cell for one hour at 4° C., then washed extensively and shifted to 37° C. in the presence of the indicated inhibitor in CM for 24 hours at which time they were analyzed for luciferase expression. Data are represented as mean±SEM of three experiments. (B-C) EGFR knockdown was accomplished using siRNA to EGFR and the percent of EGFR protein remaining in EGFR-siRNA transfected HaCaT cells was determined by immunoblot and compared by densitometry to EGFR levels in cells transfected with a negative control siRNA at 48 hours post transfection. Four separate transfections were analyzed (B) and HPV16 PsV infection levels were measured at 24 hours post infection (48 hours post transfection) in each (C). Error bars represent the average of triplicate luciferase readings from the four transfections. (D) Cells were pre-treated four hours with 100 μm monastrol, pre-treated with monastrol for four hours plus PD168393 for duration, or pre-treated with PD168393 for four hours plus monastrol for duration. […] HaCaT cells starved in SFM (four hours) were exposed to HPV16 in CM (positive control) or SFM. After washing away unbound virus, cells were incubated for 24 hours in CM, Ty (Tyrode's buffer containing 0.05% BSA), SFM, syndecan-1 depleted CM (IP-syd), or EGF-depleted CM (IP-EGF). Infection was quantified by luciferase assay 24 hours post shift to 37° C. Data are represented as mean SEM of three experiments. […] HaCaT cells starved in SFM were exposed to HPV16 in SFM for one hour at 4° C. After washing away unbound virus, cells were incubated for 24 hours in. SFM, SFM containing GF, or in CM. Infections were quantified by luciferase assay; bars represented the mean SEM of three individual experiments. (G). To investigate if infection inhibition by the various agents used in FIG. 7A,D,E could be attributed to cell cycle changes, we used identical conditions and timing of inhibitor treatment on HaCaT cells. We then stained with propidium iodide and examined the cell cycle using flow cytometry. The fractions of cells in G1 (1n), S (intermediate), and G2/M (2n) phases were expressed as percentages of the total.

HaCaT cells = experiment: Cell cycle analysis by propidium iodide flow cytometry; type: cell-based, human; conditions: HaCaT cells in CM infected with HPV16, same inhibitor conditions as infection assays
Protocol: as §1, with “To investigate if infection inhibition by the various agents used in FIG. 7A,D,E could be attributed to cell cycle changes, we used identical conditions and timing of inhibitor treatment on HaCaT cells. We then stained with propidium iodide and examined the cell cycle using flow cytometry.” left out

HPV16 [3] = experiment: HPV16 release from HaCaT cells into media, L1 immunoblot; type: cell-based, human papillomavirus; conditions: CM, MMP inhibitor, FIG. 2E
Protocol: FIG. 2. HPV16 and syndecan-1 release from the HaCaT cell plasma membrane is MMP dependent. (A, B) Immunoblot for syndecan-1 (polyclonal syndecan-1 Ab) after 24 hours at 37° C. in CM (A) or post starvation in SFM and after six hours at 37° C. in Tyrode's Buffer (B); immunoblot for HPV16 L1 released into CM post virus binding for indicated times (C) or 24 hours (E). (D) Gelatin zymography showing protease activity present in HaCaT cell CM alone or with binding of HPV16. (E-F) Effect of MMP inhibitors batimistat (BM) or marimastat (MM) at the indicated concentrations on HPV16 release into media as in panel C and densitometric quantification with AlphaEaseFC software (E) and relative infection levels (F). Cells were untreated (U) or pre-treated with BM or MM for one hour, then exposed to HPV16 PsV in the presence of inhibitors in CM. Infection was assayed by quantifying luciferase levels at 24 hours p.i. (F). Data are represented as mean±SEM of three experiments. […] HPV16 infection was measured with luciferase assay. […]
HaCaT cells were incubated with 200 vge/cell of HPV PsVs for 1 h at 4° C., washed three ties with media and incubated at 37° C. for various times before harvesting the experimental media. […] The eluted fractions were analyzed by SDS-PAGE followed by immunoblotting for HPV16 L1, proteoglycans and growth factors. […]

COc1cc2ncnc(Nc3cccc(Cl)c3)c2cc1OC [AG1478]
rapid phosphorylation of the target GFR and downstream p-ERK1/2 induced by GFs or HPV16 [1]: completely abrogating signaling

C=CC(=O)Nc1ccc2ncnc(Nc3cccc(Br)c3)c2c1 [PD168393]
infection inhibition when PD168393 treatment was added with monastrol (HPV16 [2]; HaCaT, 100 μM monastrol plus PD168393, FIG. 7D): ≈ 70% | rapid phosphorylation of the target GFR and downstream p-ERK1/2 induced by GFs or HPV16 [1]: diminished | cell cycle distribution (G1, S, G2/M) versus no treatment (HaCaT cells): relatively similar

CCN(CC)CCCCNc1ncc2cc(-c3cc(OC)cc(OC)c3)c(NC(=O)NC(C)(C)C)nc2n1 [PD173074]
block of HPV16 infection / reduction of infectivity (HPV16 [2]): 35% | cell cycle distribution (G1, S, G2/M) versus no treatment (HaCaT cells): relatively similar

CNC(=O)[C@H](Cc1ccccc1)NC(=O)[C@H](CC(C)C)[C@H](CSc1cccs1)C(=O)NO [batimastat]
visible toxicity in dose-response analysis (HPV16 [2]): absence of visible toxicity | IC50 (HPV16 [2]): 400 nM

O=c1c(-c2ccc(O)cc2)coc2cc(O)ccc12 [daidzein]
rapid phosphorylation of the target GFR and downstream p-ERK1/2 induced by GFs or HPV16 [1]: no inhibitory effect

O=c1c(-c2ccc(O)cc2)coc2cc(O)cc(O)c12 [genistein]
block of HPV16 infection / reduction of infectivity (HPV16 [2]): almost completely blocked infection | rapid phosphorylation of the target GFR and downstream p-ERK1/2 induced by GFs or HPV16 [1]: diminished

CNC(=O)[C@@H](NC(=O)[C@H](CC(C)C)[C@H](O)C(=O)NO)C(C)(C)C [marimastat]
HPV16 infection of HaCaT cells (in words) (HPV16 [2]; CM, luciferase 24 hours p.i.): efficiently reduced HPV16 infection | infection inhibition under cell cycle assay conditions (HPV16 [2]; HaCaT cells grown in CM and infected with HPV16): ~90% | visible toxicity in dose-response analysis (HPV16 [2]): absence of visible toxicity | IC50 (HPV16 [2]): 1000 nM | release of HPV16 from cells (HPV16 [3]): effectively prevented the release | cell cycle distribution (G1, S, G2/M) versus no treatment (HaCaT cells): relatively similar

EGF: epidermal growth factor
restoration of HPV16 infectivity in SFM by added factor (HPV16 [2]): fully restore infection levels

albumin
restoration of HPV16 infectivity in SFM by added factor (HPV16 [2]): did not enhance infectivity
